Columns and labels:
[1] = Long-term stability in spiked pooled human plasma
[2] = Autosampler stability of ready for injection samples; format: physicochemical, human
[3] = Freeze-thaw stability in spiked pooled human plasma; format: physicochemical
[4] = Short-term stability in spiked pooled human plasma (bench-top, 4 °C, 56 °C)
[5] = set-up: method as in supplement references [1-55] as printed per drug; conditions: minimum steady-state blood plasma concentration after multiple dose administration; ref supplement references [1-55] per drug; cited from earlier work

## Nc1cccc2c1C(=O)N(C1CCC(=O)NC1=O)C2=O (stereo not drawn) [Pomalidomide]
[1]; validation standard 2xLLOV
  Long-term stability, 1 month, -20°C Accuracy [%]: 90.4%
  Long-term stability, 1 month, -80°C Accuracy [%]: 90.2%
  Long-term stability, 2 month, -20°C Accuracy [%]: 107.3%
  Long-term stability, 2 month, -80°C Accuracy [%]: 96.6%
  Long-term stability, 3 month, -20°C Accuracy [%]: 95.5%
  Long-term stability, 3 month, -80°C Accuracy [%]: 97.4%
  Long-term stability, 6 weeks, 4°C, without daylight Accuracy [%]: 19.0%
[1]; validation standard LLOV
  Long-term stability, 1 month, -20°C Accuracy [%]: 91.3%
  Long-term stability, 1 month, -80°C Accuracy [%]: 85.8%
  Long-term stability, 2 month, -20°C Accuracy [%]: 95.9%
  Long-term stability, 2 month, -80°C Accuracy [%]: 99.9%
  Long-term stability, 3 month, -20°C Accuracy [%]: 97.6%
  Long-term stability, 3 month, -80°C Accuracy [%]: 97.4%
  Long-term stability, 6 weeks, 4°C, without daylight Accuracy [%]: 30.1%
[1]; validation standard MOV
  Long-term stability, 1 month, -20°C Accuracy [%]: 90.6%
  Long-term stability, 1 month, -80°C Accuracy [%]: 88.3%
  Long-term stability, 2 month, -20°C Accuracy [%]: 97.2%
  Long-term stability, 2 month, -80°C Accuracy [%]: 99.4%
  Long-term stability, 3 month, -20°C Accuracy [%]: 90.0%
  Long-term stability, 3 month, -80°C Accuracy [%]: 94.9%
  Long-term stability, 6 weeks, 4°C, without daylight Accuracy [%]: 15.7%
[1]; validation standard ULOV
  Long-term stability, 1 month, -20°C Accuracy [%]: 94.6%
  Long-term stability, 1 month, -80°C Accuracy [%]: 89.1%
  Long-term stability, 2 month, -20°C Accuracy [%]: 94.1%
  Long-term stability, 2 month, -80°C Accuracy [%]: 99.0%
  Long-term stability, 3 month, -20°C Accuracy [%]: 87.6%
  Long-term stability, 3 month, -80°C Accuracy [%]: 95.1%
  Long-term stability, 6 weeks, 4°C, without daylight Accuracy [%]: 11.3%
[2]; validation standard 2xLLOV
  Autosampler (24h, 4°C) Accuracy [%]: 104.1%
  Autosampler (72h, 4°C) Accuracy [%]: 103.5%
[2]; validation standard LLOV
  Autosampler (24h, 4°C) Accuracy [%]: 104.9%
  Autosampler (72h, 4°C) Accuracy [%]: 96.5%
[2]; validation standard MOV
  Autosampler (24h, 4°C) Accuracy [%]: 104.5%
  Autosampler (72h, 4°C) Accuracy [%]: 97.7%
[2]; validation standard ULOV
  Autosampler (24h, 4°C) Accuracy [%]: 100.5%
  Autosampler (72h, 4°C) Accuracy [%]: 97.9%
[3]; validation standard 2xLLOV
  Freeze-Thaw Accuracy [%]: 90.9%
[3]; validation standard LLOV
  Freeze-Thaw Accuracy [%]: 74.4%
[3]; validation standard MOV
  Freeze-Thaw Accuracy [%]: 90.1%
[3]; validation standard ULOV
  Freeze-Thaw Accuracy [%]: 92.4%
[4]; validation standard 2xLLOV
  Short-time stability (1h, 56°C) Accuracy [%]: 21.3%
  Short-time stability (24h, 4°C, without daylight) Accuracy [%]: 94.1%
  Short-time stability (24h, RT, with daylight) Accuracy [%]: 51.2%
  Short-time stability (24h, RT, without daylight) Accuracy [%]: 51.3%
[4]; validation standard LLOV
  Short-time stability (1h, 56°C) Accuracy [%]: 38.4%
  Short-time stability (24h, 4°C, without daylight) Accuracy [%]: 92.5%
  Short-time stability (24h, RT, with daylight) Accuracy [%]: 42.4%
  Short-time stability (24h, RT, without daylight) Accuracy [%]: 42.6%
[4]; validation standard MOV
  Short-time stability (1h, 56°C) Accuracy [%]: 20.6%
  Short-time stability (24h, 4°C, without daylight) Accuracy [%]: 96.7%
  Short-time stability (24h, RT, with daylight) Accuracy [%]: 51.3%
  Short-time stability (24h, RT, without daylight) Accuracy [%]: 51.2%
[4]; validation standard ULOV
  Short-time stability (1h, 56°C) Accuracy [%]: 16.9%
  Short-time stability (24h, 4°C, without daylight) Accuracy [%]: 88.6%
  Short-time stability (24h, RT, with daylight) Accuracy [%]: 43.6%
  Short-time stability (24h, RT, without daylight) Accuracy [%]: 43.8%
[5]
  cmin: 10.9 ng/mL

## CNC(=O)c1cc(Oc2ccc(NC(=O)Nc3ccc(Cl)c(C(F)(F)F)c3)c(F)c2)ccn1 [Regorafenib]
[1]; validation standard 2xLLOV
  Long-term stability, 1 month, -20°C Accuracy [%]: 101.2%
  Long-term stability, 1 month, -80°C Accuracy [%]: 104.0%
  Long-term stability, 2 month, -20°C Accuracy [%]: 105.6%
  Long-term stability, 2 month, -80°C Accuracy [%]: 104.3%
  Long-term stability, 3 month, -20°C Accuracy [%]: 90.7%
  Long-term stability, 3 month, -80°C Accuracy [%]: 103.7%
  Long-term stability, 6 weeks, 4°C, without daylight Accuracy [%]: 80.6%
[1]; validation standard LLOV
  Long-term stability, 1 month, -20°C Accuracy [%]: 105.4%
  Long-term stability, 1 month, -80°C Accuracy [%]: 102.9%
  Long-term stability, 2 month, -20°C Accuracy [%]: 106.3%
  Long-term stability, 2 month, -80°C Accuracy [%]: 104.7%
  Long-term stability, 3 month, -20°C Accuracy [%]: 94.0%
  Long-term stability, 3 month, -80°C Accuracy [%]: 105.1%
  Long-term stability, 6 weeks, 4°C, without daylight Accuracy [%]: 79.3%
[1]; validation standard MOV
  Long-term stability, 1 month, -20°C Accuracy [%]: 101.6%
  Long-term stability, 1 month, -80°C Accuracy [%]: 106.3%
  Long-term stability, 2 month, -20°C Accuracy [%]: 105.8%
  Long-term stability, 2 month, -80°C Accuracy [%]: 112.2%
  Long-term stability, 3 month, -20°C Accuracy [%]: 97.1%
  Long-term stability, 3 month, -80°C Accuracy [%]: 100.4%
  Long-term stability, 6 weeks, 4°C, without daylight Accuracy [%]: 101.0%
[1]; validation standard ULOV
  Long-term stability, 1 month, -20°C Accuracy [%]: 104.7%
  Long-term stability, 1 month, -80°C Accuracy [%]: 103.8%
  Long-term stability, 2 month, -20°C Accuracy [%]: 108.5%
  Long-term stability, 2 month, -80°C Accuracy [%]: 107.0%
  Long-term stability, 3 month, -20°C Accuracy [%]: 92.9%
  Long-term stability, 3 month, -80°C Accuracy [%]: 103.1%
  Long-term stability, 6 weeks, 4°C, without daylight Accuracy [%]: 95.5%
[2]; validation standard 2xLLOV
  Autosampler (24h, 4°C) Accuracy [%]: 101.6%
  Autosampler (72h, 4°C) Accuracy [%]: 101.1%
[2]; validation standard LLOV
  Autosampler (24h, 4°C) Accuracy [%]: 107.3%
  Autosampler (72h, 4°C) Accuracy [%]: 102.1%
[2]; validation standard MOV
  Autosampler (24h, 4°C) Accuracy [%]: 101.4%
  Autosampler (72h, 4°C) Accuracy [%]: 104.4%
[2]; validation standard ULOV
  Autosampler (24h, 4°C) Accuracy [%]: 104.2%
  Autosampler (72h, 4°C) Accuracy [%]: 99.3%
[3]; validation standard 2xLLOV
  Freeze-Thaw Accuracy [%]: 97.1%
[3]; validation standard LLOV
  Freeze-Thaw Accuracy [%]: 101.6%
[3]; validation standard MOV
  Freeze-Thaw Accuracy [%]: 96.2%
[3]; validation standard ULOV
  Freeze-Thaw Accuracy [%]: 98.6%
[4]; validation standard 2xLLOV
  Short-time stability (1h, 56°C) Accuracy [%]: 41.3%
  Short-time stability (24h, 4°C, without daylight) Accuracy [%]: 95.0%
  Short-time stability (24h, RT, with daylight) Accuracy [%]: 89.4%
  Short-time stability (24h, RT, without daylight) Accuracy [%]: 83.8%
[4]; validation standard LLOV
  Short-time stability (1h, 56°C) Accuracy [%]: 32.3%
  Short-time stability (24h, 4°C, without daylight) Accuracy [%]: 83.3%
  Short-time stability (24h, RT, with daylight) Accuracy [%]: 88.6%
  Short-time stability (24h, RT, without daylight) Accuracy [%]: 80.3%
[4]; validation standard MOV
  Short-time stability (1h, 56°C) Accuracy [%]: 39.7%
  Short-time stability (24h, 4°C, without daylight) Accuracy [%]: 104.6%
  Short-time stability (24h, RT, with daylight) Accuracy [%]: 90.2%
  Short-time stability (24h, RT, without daylight) Accuracy [%]: 90.8%
[4]; validation standard ULOV
  Short-time stability (1h, 56°C) Accuracy [%]: 35.4%
  Short-time stability (24h, 4°C, without daylight) Accuracy [%]: 101.4%
  Short-time stability (24h, RT, with daylight) Accuracy [%]: 89.0%
  Short-time stability (24h, RT, without daylight) Accuracy [%]: 87.8%
[5]
  cmin: 1400 ng/mL

## CCN(CC)CCNC(=O)c1c(C)[nH]c(/C=C2\C(=O)Nc3ccc(F)cc32)c1C [Sunitinib]
[1]; validation standard 2xLLOV
  Long-term stability, 1 month, -20°C Accuracy [%]: 121.2%
  Long-term stability, 1 month, -80°C Accuracy [%]: 108.5%
  Long-term stability, 2 month, -20°C Accuracy [%]: 108.9%
  Long-term stability, 2 month, -80°C Accuracy [%]: 108.9%
  Long-term stability, 3 month, -20°C Accuracy [%]: 123.9%
  Long-term stability, 3 month, -80°C Accuracy [%]: 131.1%
  Long-term stability, 6 weeks, 4°C, without daylight Accuracy [%]: 85.9%
[1]; validation standard LLOV
  Long-term stability, 1 month, -20°C Accuracy [%]: 132.8%
  Long-term stability, 1 month, -80°C Accuracy [%]: 122.7%
  Long-term stability, 2 month, -20°C Accuracy [%]: 114.3%
  Long-term stability, 2 month, -80°C Accuracy [%]: 112.8%
  Long-term stability, 3 month, -20°C Accuracy [%]: 130.7%
  Long-term stability, 3 month, -80°C Accuracy [%]: 135.5%
  Long-term stability, 6 weeks, 4°C, without daylight Accuracy [%]: 96.2%
[1]; validation standard MOV
  Long-term stability, 1 month, -20°C Accuracy [%]: 118.5%
  Long-term stability, 1 month, -80°C Accuracy [%]: 107.0%
  Long-term stability, 2 month, -20°C Accuracy [%]: 106.3%
  Long-term stability, 2 month, -80°C Accuracy [%]: 102.8%
  Long-term stability, 3 month, -20°C Accuracy [%]: 123.6%
  Long-term stability, 3 month, -80°C Accuracy [%]: 120.9%
  Long-term stability, 6 weeks, 4°C, without daylight Accuracy [%]: 109.9%
[1]; validation standard ULOV
  Long-term stability, 1 month, -20°C Accuracy [%]: 119.5%
  Long-term stability, 1 month, -80°C Accuracy [%]: 109.0%
  Long-term stability, 2 month, -20°C Accuracy [%]: 109.7%
  Long-term stability, 2 month, -80°C Accuracy [%]: 108.8%
  Long-term stability, 3 month, -20°C Accuracy [%]: 122.5%
  Long-term stability, 3 month, -80°C Accuracy [%]: 118.4%
  Long-term stability, 6 weeks, 4°C, without daylight Accuracy [%]: 105.4%
[2]; validation standard 2xLLOV
  Autosampler (24h, 4°C) Accuracy [%]: 113.8%
  Autosampler (72h, 4°C) Accuracy [%]: 111.0%
[2]; validation standard LLOV
  Autosampler (24h, 4°C) Accuracy [%]: 113.8%
  Autosampler (72h, 4°C) Accuracy [%]: 119.4%
[2]; validation standard MOV
  Autosampler (24h, 4°C) Accuracy [%]: 111.8%
  Autosampler (72h, 4°C) Accuracy [%]: 114.3%
[2]; validation standard ULOV
  Autosampler (24h, 4°C) Accuracy [%]: 113.4%
  Autosampler (72h, 4°C) Accuracy [%]: 119.5%
[3]; validation standard 2xLLOV
  Freeze-Thaw Accuracy [%]: 102.8%
[3]; validation standard LLOV
  Freeze-Thaw Accuracy [%]: 117.0%
[3]; validation standard MOV
  Freeze-Thaw Accuracy [%]: 99.1%
[3]; validation standard ULOV
  Freeze-Thaw Accuracy [%]: 100.3%
[4]; validation standard 2xLLOV
  Short-time stability (1h, 56°C) Accuracy [%]: 54.5%
  Short-time stability (24h, 4°C, without daylight) Accuracy [%]: 105.9%
  Short-time stability (24h, RT, with daylight) Accuracy [%]: 79.8%
  Short-time stability (24h, RT, without daylight) Accuracy [%]: 83.9%
[4]; validation standard LLOV
  Short-time stability (1h, 56°C) Accuracy [%]: 65.8%
  Short-time stability (24h, 4°C, without daylight) Accuracy [%]: 111.2%
  Short-time stability (24h, RT, with daylight) Accuracy [%]: 93.0%
  Short-time stability (24h, RT, without daylight) Accuracy [%]: 98.2%
[4]; validation standard MOV
  Short-time stability (1h, 56°C) Accuracy [%]: 44.2%
  Short-time stability (24h, 4°C, without daylight) Accuracy [%]: 101.2%
  Short-time stability (24h, RT, with daylight) Accuracy [%]: 83.0%
  Short-time stability (24h, RT, without daylight) Accuracy [%]: 86.7%
[4]; validation standard ULOV
  Short-time stability (1h, 56°C) Accuracy [%]: 40.6%
  Short-time stability (24h, 4°C, without daylight) Accuracy [%]: 106.4%
  Short-time stability (24h, RT, with daylight) Accuracy [%]: 93.1%
  Short-time stability (24h, RT, without daylight) Accuracy [%]: 93.8%
[5]
  cmin: 51.6 ng/mL

From PMC8699473, “An Easily Expandable Multi-Drug LC-MS Assay for the Simultaneous Quantification of 57 Oral Antitumor Drugs in Human Plasma” (Cancers, 2021)
